Measurements reported in patent publication US8399378B2, “Use of neonicotinoids in pest control” (Syngenta Crop Protection LLC, priority 1998, dated 2013).

Tests used:
Assay type in all cases: in vivo
Nephotettix cincticeps [1] = experiment: Rice plant pot test, action against Nephotettix cincticeps (systemic); conditions: 6 days; for control (percentage reduction in population, % action): placed in aqueous emulsion with 400 ppm compound; for control level: pot (B) conventional rice plants
Description: (§1) Rice plants expressing the δ-endotoxin CryIa(b) are planted in a in pot (A) and conventional ice plants are planted in a pot (B). Pot (A) is placed in an aqueous emulsion containing 400 ppm thiamethoxam, whereas plot (B) is placed in a pot containing 400 ppm thiamethoxam and 400 ppm of the δ-endotoxin CryI(b). The plants are subsequently infected with Nephotettix cincticeps larvae of the second and third stage. The test is evaluated after 6 days.
The percentage reduction in population (% action) is determined by comparing the number of dead pests on the plants of pot (A) with that on the plants of pot (B).
as §1, with “CryIa(c)” for “CryIa(b)”, “CryI(c).” for “CryI(b).”

Spodoptera littoralis = experiment: Spray test on young cotton plants, action against Spodoptera littoralis larvae
Aphis gossypii = experiment: Cotton seedling spray test, action against Aphis gossypii; conditions: 20° C, 3 and 6 days; for control (percentage reduction in population, % action): spray 400 ppm; for control level: plot (b) conventional cotton seedlings, 400 ppm compound, then 400 ppm δ-endotoxin CryIIIa
Description: Cotton seedlings on a plot (a) expressing the δ-endotoxin CryIIIa on a plot (a) and conventional cotton seedlings on a plot (b) are infected with Aphis gossypi and subsequently sprayed with a spray mixture comprising 400 ppm thiamethoxam. Immediately afterwards, plot (b) is treated with an emulsion spray mixture comprising 400 ppm of the δ-endotoxin CryIIIa. The seedlings of plot (a) and (b) are then incubated at 20° C. The test is evaluated after 3 and 6 days.
(§2) The percentage reduction in population (% action) is determined by comparing the number of dead pests on the plants of plot (a) with that on the plants of plot (b).
Cotton seedlings expressing the δ-endotoxin CryIA(c) on a plot (a) and conventional cotton seedlings on a plot (b) are infected with Aphis gossypii and subsequently sprayed with a spray mixture comprising 400 ppm thiamethoxam. Immediately afterwards, plot (b) is treated with an emulsion spray mixture comprising 400 ppm of the δ-endotoxin CryIIIa. The seedlings of plot (a) and (b) are then incubated at 20° C. The test is evaluated after 3 and 6 days.

Nephotettix cincticeps [2] = experiment: Rice plant spray test, action against Nephotettix cincticeps; conditions: 20° C, 21 days; for control (percentage reduction in population, % action): spray 400 ppm, 2nd and 3rd stages; for control level: plot (b) conventional rice plants, 400 ppm compound
Description: (§3) Rice plants on a plot (a) expressing the δ-endotoxin CryIA(b) and conventional rice plants on a plot (b) are sprayed with a spray mixture comprising 400 ppm thiamethoxam. Immediately afterwards, plot (b) is treated with an emulsion spray mixture comprising 400 ppm of the δ-endotoxin CryIA(b). After the spray coating has dried on, the plants are infected with Nephotettix cincticeps of the 2nd and 3rd stages. The seedlings of plot (a) and (b) are then incubated at 20° C. The test is evaluated after 21 days.
as §2
as §3, with “CryIA(c)” for “CryIA(b)”, “CryIA(c).” for “CryIA(b).”

Heliothis spp. = experiment: Maize plot spray test (KnockOut vs conventional maize), action against Heliothis spp.; conditions: 6 days
Description: (§4) A plot (a) planted with maize cv. KnockOut® and an adjacent plot (b) of the same size which is planted with conventional maize, both showing natural infestation with Ostrinia nubilalis, Spodoptera spp. or Heliothis, are sprayed with an aqueous emulsion spray mixture comprising 200, 100, 50, 10, 5, 1 ppm of Ti-435. Immediately afterwards, plot (b) is treated with an emulsion spray mixture comprising 200, 100, 50, 10, 5, 1 ppm of the endotoxin expressed by KnockOut®. Evaluation takes place 6 days later. The percentage reduction in population (% action) is determined by comparing the number of dead pests on the plants of plot (a) with that on the plants of plot (b).
as §4, with “thiamethoxam.” for “Ti-435.”
as §4, with “imidacloprid.” for “Ti-435.”

## CN1COCN(Cc2cnc(Cl)s2)/C1=N\[N+](=O)[O-] [thiamethoxam, 5-(2-Chlorthiazol-5-ylmethyl)-3-methyl-4-nitroimino-perhydro-1,3,5-oxadiazin]
Nephotettix cincticeps [1]; pot (A) rice plants expressing δ-endotoxin CryIa(b)
  control (percentage reduction in population, % action): Improved control
Nephotettix cincticeps [1]; pot (A) rice plants expressing δ-endotoxin CryIa(c)
  control (percentage reduction in population, % action): Improved control
Nephotettix cincticeps [1]; 400 ppm compound and 400 ppm δ-endotoxin CryI(b)
  control level: ≤ 60%
Nephotettix cincticeps [1]; 400 ppm compound and 400 ppm δ-endotoxin CryI(c)
  control level: ≤ 60%
Spodoptera littoralis; non-transgenic cotton treated with compound and conventional CryIIIA-toxin, each 100, 50, 10, 5, 1 ppm, comparison arm for CryIIIA cotton
  control of the tested insects (percentage reduction in population or feeding damage, % action): insufficient
Spodoptera littoralis; transgenic cotton expressing δ-endotoxin CryIIIA, spray 100, 50, 10, 5, 1 ppm, evaluation 3 to 10 days, compared with non-transgenic plant
  control of the tested insects (percentage reduction in population or feeding damage, % action): superior
Aphis gossypii; plot (a) cotton seedlings expressing δ-endotoxin CryIIIa
  control (percentage reduction in population, % action): Improved control
Aphis gossypii; plot (a) cotton seedlings expressing δ-endotoxin CryIa(c)
  control (percentage reduction in population, % action): Improved control
Aphis gossypii
  control level: ≤ 60%
Aphis gossypii; comparison arm for CryIA(c) cotton
  control level: ≤ 60%
Nephotettix cincticeps [2]; plot (a) rice plants expressing δ-endotoxin CryIA(b)
  control (percentage reduction in population, % action): Improved control
Nephotettix cincticeps [2]; plot (a) rice plants expressing δ-endotoxin CryIA(c)
  control (percentage reduction in population, % action): Improved control
Nephotettix cincticeps [2]; then 400 ppm δ-endotoxin CryIA(b)
  control level: ≤ 60%
Nephotettix cincticeps [2]; then 400 ppm δ-endotoxin CryIA(c)
  control level: ≤ 60%
Heliothis spp.; plot (a) maize cv. KnockOut, spray 200, 100, 50, 10, 5, 1 ppm, natural infestation
  control (percentage reduction in population, % action): Improved control
Heliothis spp.; plot (b) conventional maize, compound 200, 100, 50, 10, 5, 1 ppm, then same ppm of the endotoxin expressed by KnockOut
  control level: ≤ 60%
